From article PMC6804079, “Investigation of 5’-Norcarbocyclic Nucleoside Analogues as Antiprotozoal and Antibacterial Agents” (Molecules, 2019)
In brackets after ≈: the same amount, converted by molar mass. Several values for one entry are separate records, joined by “and”; a condition that tells them apart may be missing. Identical values can stand only once.

Legend:
T. vaginalis strain G3 = test: resorufin-based EC50 assay, T. vaginalis; details: Trichomonas vaginalis, read-out: Trichomonas Vaginalis, EC50
Protocol: The standard metronidazole-susceptible T. vaginalis strain G3was originally obtained from Jeremy Mottram (University of York, UK) and cultured in a modification of Diamond′s medium supplemented with 10% horse serum with a composition as described [40] at 37 °C under anaerobic conditions. Cultures were passaged daily.
Drugs were tested on T. vaginalis using a resorufin-based assay that we developed [40, 43]. The assay is based on the principle that live T. vaginalis trophozoites are, almost uniquely, able to reduce fluorescent, pink resorufin to non-fluorescent, colorless dihydro-resorufin. This conversion was measured as a dose-dependent increase in fluorescence (with dead cells unable to metabolize the fluorophore; λexc 544 nm, λem 599 nm), resulting in a sigmoid curve with variable slope that yielded EC50 values (Prism 6.0). Plates contained 11 doubling dilutions (1 row) and no-drug control for each compound starting at 100 µM under anaerobic conditions as described [40, 43]. Fluorescence was determined in a PheraStar plate reader (BMG Labtech).

[1] = system: M. tuberculosis ATCC 25,177 (H37Ra); test: microbe, parasite or virus in culture; format: cell-based, Mycobacterium tuberculosis; details: for MIC: Mycobacterium tuberculosis, read-out: M. Tuberculosis 25,177 MIC
[2] = system: T. b. brucei strain Lister 427 (s427-WT); test: resazurin EC50 assay, T. b. brucei wild-type bloodstream forms; format: cell-based, Trypanosoma brucei brucei; details: 48 h + 24 h resazurin, average and SEM, at least three determinations, NE = no effect on cell viability at 100 µM; for EC50: Trypanosoma brucei, 72 h
Tbb-5FURes = test: microbe, parasite or virus in culture; format: cell-based, Trypanosoma brucei brucei; details: for EC50: Trypanosoma brucei, read-out: T. Brucei, EC50, Tbb-5FURes
[3] = system: L. mexicana 5FURes (Lmex5FURes); test: microbe, parasite or virus in culture; details: Leishmania mexicana, read-out: L. Mexicana 5FUR, EC50
Protocol: (§1) Promastigotes of Leishmania mexicana strain MNY/BZ/62/M379 was cultured in a minimal essential medium, HO-MEMO-MEME, supplemented with 10% FBS and 1% of a penicillin/streptomycin solution (Gibco) as described previously [39] at 25 °C. The L. mexicana 5FURes strain was the same strain but adapted in vitro to high levels of 5FU exactly as described for T. brucei [12].
(§2) The resazurin assay for L. mexicana promastigotes was performed exactly as for T. b. brucei, except that incubation times of 72 and 48 h were used before and after the addition of resazurin, respectively, due to the slower metabolism of the dye by Leishmania promastigotes [42].

T. brucei B48 = test: microbe, parasite or virus in culture; format: cell-based, Trypanosoma brucei brucei; details: for EC50: Trypanosoma brucei, read-out: T. Brucei, EC50, B48
U-937 cells = test: U-937 cytotoxicity (XTT); format: cell-based; details: 6 days incubation
Protocol: The U-937 cells used in the cytotoxicity evaluation were obtained from the AIDS Research and Reference Program. The cells were cultured as indicated by the supplier in RPMI-1640 supplemented with 10% heat inactivated FBS, 1% penicillin/streptomycin solution, and 1% L-glutamine.
U-937 cells plated at 2.5 × 10^3 cells/well in a volume of 100 µL were incubated with serially diluted test compounds in a volume of 100 µL for 6 days at 37 °C/5% CO2. Following the incubation, the cells were stained by adding 50 μL tetrazolium dye XTT (Sigma) solution at 5 mg/mL to determine cellular viability and read at 460/650 nm on a spectrophotometer. Toxicity values were calculated using linear regression analysis.

M. tuberculosis H37Rv = test: microbe, parasite or virus in culture; format: cell-based; details: Mycobacterium tuberculosis, control drugs at critical concentrations
T. brucei 2T1 PYR6-5 −/− = test: microbe, parasite or virus in culture; format: cell-based, Trypanosoma brucei brucei; details: for EC50: Trypanosoma brucei, read-out: T. Brucei, EC50, 2T1 PYR6-5 −/−
M. smegmatis 700,084 = format: cell-based, Mycobacterium smegmatis; details: tested up to 250 µM
M. tuberculosis MS-115 = test: microbe, parasite or virus in culture; format: cell-based; details: Mycobacterium tuberculosis, MS115, read-out: M. Tuberculosis MS-115 MIC
[4] = system: L. mexicana 5FURes (Lmex5FURes); details: differences in EC50 between wild-type and 5FU-resistant L. mexicana
Protocol: as §1, §2

[5] = system: Staphylococcus aureus NRS384; test: microbe, parasite or virus in culture; format: cell-based; details: NRS384, read-out: extrapolated IC50, growth of S. aureus NRS384
[6] = system: L. mexicana WT promastigotes (strain MNY/BZ/62/M379); test: resazurin EC50 assay, L. mexicana promastigotes wild-type; details: 72 h + 48 h resazurin, average and SEM, NE = no effect on cell viability at 100 µM
Protocol: as §1, §2

Row | Compound | EC50 (T. vaginalis strain G3) [µM] | EC50 [2] [µM] | MIC [1] | EC50 (Tbb-5FURes) [µM] | EC50 [3] [µM] | EC50 (T. brucei B48) [µM] | U-937 Cells TC50 (U-937 cells) [µM] | MIC (M. tuberculosis H37Rv) [µg/mL] | EC50 (T. brucei 2T1 PYR6-5 −/−) [µM] | other results
1 | Cc1ncc([N+](=O)[O-])n1CCO [Metronidazole, reference compound] | 0.53 ± 0.1 |  |  |  |  |  |  |  |  | 
2 | NC[C@H]1O[C@H](O[C@H]2[C@H](O)[C@@H](O[C@H]3O[C@H](CO)[C@@H](O)[C@H](N)[C@H]3O)[C@H](N)C[C@@H]2N)[C@H](O)[C@@H](O)[C@@H]1O [Kanamycin, reference compound] |  |  |  |  |  |  |  |  |  | M. Tuberculosis 25,177 MIC [1]: 6.5 µM and 3.13 µg/mL
3 | CCCCCc1ccc(C#Cc2cn([C@H]3C=C[C@@H](O)C3)c(=O)n([C@H]3C=C[C@@H](O)C3)c2=O)cc1 [Compound 8] | 36.9 ± 0.18 | ~8 | 31 µM and 13.9 µg/mL | 12 ± 1.2 | 27.5 ± 2.3 | 11 ± 0.6 | 17.3 | > 50 | 15.4 ± 0.7 | concentration completely inhibiting growth of M. smegmatis (M. smegmatis 700,084): 250 µM
4 | NNC(=O)c1ccncc1 [Isoniazid, reference compound] |  |  |  |  |  |  |  | 0.1 (≈ 0.729 µM) |  | MIC (M. tuberculosis MS-115): > 100 µg/mL
5 | CCCCCCCCC#Cc1cn([C@H]2C=C[C@@H](O)C2)c(=O)n([C@H]2C=C[C@@H](O)C2)c1=O [Compound 3, 1-[4′-Hydroxy-2′-cyclopenten-1′-yl]-3-(4′′-hydroxy-2′′-cyclopent-en-1′′-yl)-5-decynyluracil] | 32 ± 0.001 | ~13 | 31 µM and 12.8 µg/mL | 19.9 ± 0.7 | 25.8 ± 0.4 | 14.7 ± 0.2 | 2.2 | 50 (≈ 121 µM) | 17.1 ± 1.2 | MIC (M. tuberculosis MS-115): 50 µg/mL (≈ 121 µM)
6 | CCCCCCCCCCC#Cc1cn([C@H]2C=C[C@@H](O)C2)c(=O)n([C@H]2C=C[C@@H](O)C2)c1=O [Compound 2, 1-[4′-Hydroxy-2′-cyclopenten-1′-yl]-3-(4′′-hydroxy-2′′-cyclopent-en-1′′-yl)-5-dodecynyluracil] | 48.9 ± 0.05 | 3.1 | 31 µM and 13.6 µg/mL | 5.2 ± 0.6 | 51.1 ± 0.6 | 4 ± 0.4 | 22.1 | > 50 | 5.5 ± 0.5 | 
7 | O=c1[nH]cc(F)c(=O)[nH]1 [5-Fluorouracil, reference compound] |  | 87 ± 6.4 |  | 2500 ± 76 | 3520 ± 440 | 101 ± 7 |  |  | 2.33 ± 0.35 | fold resistance, Lmex5FURes versus wild-type [4]: > 400 fold; fold difference in EC50, 5FURes versus wild-type (Tbb-5FURes; resistance to 5FU, reduction in trypanocidal activity for test compounds): 28.7 fold; fold difference in EC50, PYR6-5 −/− versus wild-type (T. brucei 2T1 PYR6-5 −/−; sensitization for 5FU, reduction in trypanocidal activity for test compounds): 37.4 fold
8 | N=C(N)c1ccc(OCCCCCOc2ccc(C(=N)N)cc2)cc1 [Pentamidine, reference compound] |  | 0.0032 ± 0.0004 |  | 0.0034 ± 0.0004 | 1.63 ± 0.18 | 0.71 ± 0.03 |  |  | 0.0031 ± 0.0004 | fold resistance, B48 versus wild-type (T. brucei B48; higher EC50 against multi-drug resistant strain B48): 219 fold
9 | O=C(NCC#Cc1cn([C@H]2C=C[C@@H](O)C2)c(=O)n([C@H]2C=C[C@@H](O)C2)c1=O)C(F)(F)F [Compound 10, 1-[4′-Hydroxy-2′-cyclopenten-1′-yl]-3-(4′′-hydroxy-2′′-cyclopent-en-1′′-yl)-5-(trifluoroacetamidepropynyl)uracil] | 69.2 ± 0.05 | > 100 | > 1000 µM and > 425 µg/mL | > 100 | > 100 | > 100 | 78.0 |  | > 100 | T. Brucei, EC50, S427-WT [2]: little or no activity at the highest concentration tested; IC50 [5]: ~100 µM
10 | O=c1c(C#CCO)cn([C@H]2C=C[C@@H](O)C2)c(=O)n1[C@H]1C=C[C@@H](O)C1 [Compound 9, 1-[4′-Hydroxy-2′-cyclopenten-1′-yl]-3-(4′′-hydroxy-2′′-cyclopent-en-1′′-yl)-5-(hydroxypropynyl)uracil] | 84.8 ± 0.004 | 66.8 ± 6.6 | 1000 µM and 330 µg/mL | 74.9 ± 3.5 | > 100 | 76.8 ± 4.4 | >100 |  | 59.9 ± 1 | L. Mexicana WT, EC50 [6]: did not show any antileishmanial activity at all
11 | CCCC#Cc1cn([C@H]2C=C[C@@H](O)C2)c(=O)n([C@H]2C=C[C@@H](O)C2)c1=O [Compound 5, 1-[4′-Hydroxy-2′-cyclopenten-1′-yl]-3-(4′′-hydroxy-2′′-cyclopent-en-1′′-yl)-5-pentynyluracil] | 73.5 ± 0.08 | > 100 | > 1000 µM and > 342 µg/mL | > 100 | > 100 | > 100 | 88.5 |  | > 100 | 
12 | C[C@H]1COc2c(N3CCN(C)CC3)c(F)cc3c(=O)c(C(=O)O)cn1c23 [Levofloxacin, reference compound] |  |  |  |  |  |  |  | 1.5 (≈ 4.15 µM) |  | MIC (M. tuberculosis MS-115): 1.5 µg/mL (≈ 4.15 µM)
13 | CC(C)(C)c1ccc(C#Cc2cn([C@H]3C=C[C@@H](O)C3)c(=O)n([C@H]3C=C[C@@H](O)C3)c2=O)cc1 [Compound 7, 1-[4′-Hydroxy-2′-cyclopenten-1′-yl]-3-(4′′-hydroxy-2′′-cyclopent-en-1′′-yl)-5-(4-tertbutylphenynylethenyl)uracil] | 52.8 ± 0.007 | ~8 | 62.5 µM and 27 µg/mL | 12.6 ± 1.4 | 45.3 ± 2.2 | 10.8 ± 0.6 | 22.5 | > 50 | 14.7 ± 0.4 | concentration completely inhibiting growth of M. smegmatis (M. smegmatis 700,084): 250 µM
14 | CCCCCCC#Cc1cn([C@H]2C=C[C@@H](O)C2)c(=O)n([C@H]2C=C[C@@H](O)C2)c1=O [Compound 4, 1-[4′-Hydroxy-2′-cyclopenten-1′-yl]-3-(4′′-hydroxy-2′′-cyclopent-en-1′′-yl)-5-octynyluracil] | 54.1 ± 0.002 | ~13 | 31 µM and 11.9 µg/mL | 24.9 ± 0.5 | 47.3 ± 0.4 | 17.7 ± 1 | 73.8 | > 50 | 17.5 ± 1.2 | 
15 | CCOC(=O)C#Cc1cn([C@H]2C=C[C@@H](O)C2)c(=O)n([C@H]2C=C[C@@H](O)C2)c1=O [Compound 11, 1-[4′-Hydroxy-2′-cyclopenten-1′-yl]-3-(4′′-hydroxy-2′′-cyclopent-en-1′′-yl)-5-(ethyloxycarbonylpropynyl)uracil] | 53.8 ± 0.74 | > 100 | 1000 µM and 372 µg/mL | > 100 | > 100 | > 100 | 21.6 |  | > 100 | T. Brucei, EC50, S427-WT [2]: little or no activity at the highest concentration tested; IC50 [5]: ~100 µM
16 | O=c1c(C#Cc2ccccc2)cn([C@H]2C=C[C@@H](O)C2)c(=O)n1[C@H]1C=C[C@@H](O)C1 [Compound 6] | 70.2 ± 0.06 | > 100 | 500 µM and 188 µg/mL | > 100 | > 100 | > 100 | 166.2 |  | > 100 | 
17 | CO[C@H]1/C=C/O[C@@]2(C)Oc3c(C)c(O)c4c(O)c(c(/C=N/N5CCN(C)CC5)c(O)c4c3C2=O)NC(=O)/C(C)=C\C=C\[C@H](C)[C@H](O)[C@@H](C)[C@@H](O)[C@@H](C)[C@H](OC(C)=O)[C@@H]1C [Rifampicin, reference compound] |  |  | 0.19 µM and 0.16 µg/mL |  |  |  |  | 1 (≈ 1.22 µM) |  | MIC (M. tuberculosis MS-115): > 50 µg/mL
18 | CCCCCCCCCc1ccc(OCCOCCOCCOCCOCCOCCOCCOCCOCCO)cc1 [Compound N9, Nonoxynol-9, reference compound] |  |  |  |  |  |  |  |  |  | U-937 Cells TC50 (U-937 cells; positive control): 6.5 µg/mL; U-937 Cells TC50 (U-937 cells; positive control, listed as Nonoxynol-9): toxic at the expected concentration
